Measurements published in patent US11312719B2, “9-substituted amino triazolo quinazoline derivatives as adenosine receptor antagonists, pharmaceutical compositions and their use” (Merck Sharp & Dohme Corp., priority 2018, dated 2022).

What was measured:
[1] = molecular target: human A2B receptors (Homo sapiens (Human), UniProt P29275); test: A2B antagonism in cAMP cell-based assay (LANCE cAMP, HEK293); details: HEK293 cells expressing human A2B receptor
Description: (§1) Measurement of A2A and A2B Antagonism in cAMP Cell-Based Assay
(§2) The ability of compounds to antagonize human A2A and A2B adenosine receptors was determined using a kit to measure changes in intracellular cyclic AMP levels (LANCE cAMP 384 Kit, Perkin Elmer, Cat. No. AD0264). HEK293 cells recombinantly expressing either human A2A or A2B receptors, previously frozen in Recovery Medium (Life Technologies, Cat. No. 12648-010) were thawed and diluted into stimulation buffer (HBSS (Hyclone SH 30268.01), 5 mM HEPES (Gibco 15630-106), 200 nM rolipram (Tocris, Cat. No. 0905), and 1.5% (V/v) BSA stabilizer (kit component). The cell suspension was centrifuged at 200×g for 10 min and then resuspended in stimulation buffer, supplemented with a 1:10 000 dilution of Alexa Fluor 647 anti-cAMP antibody, to a density of 6.0×10^5 cells/mL. A Labcyte Echo 550 acoustic dispenser was used to transfer up to 25 nL of test compound dissolved in DMSO into the wells of a dry Optiplate-384 plate (Perkin Elmer, Cat. No. 6008289). All subsequent liquid additions were performed using a multichannel pipettor. Next, 5 μL of the cell suspension was added to the wells of the Optiplate-384 and incubated for 30 min. at 37° C. and 5% CO2 in a humidified environment. After this time 5 μL of either 300 nM or 600 nM adenosine (Sigma Cat. No. A9251) for A2A and A2B respectively was added and incubated for 30 minutes at 37° C. and 5% CO2 in a humidified environment. At this time detection mix was prepared by combining the LANCE Eu-W8044 labeled streptavidin and Biotin-cAMP in detection buffer according to the manufacturers protocol. 10 μL of the detection mix was added to each well of the Optiplate-384 which was covered with a plate seal and incubated under ambient conditions for 2 hours prior to reading the plate using an Envision (Perkin Elmer, Waltham, Mass.) multimode plate reader. Data was normalized by defining minimal effect as stimulation in the presence of 0.25% (v/v) DMSO and maximal effect as stimulation in the presence of 1 μM ZM241385 (Cayman, Cat. No. 1036). Curve fitting of the percent effect data versus the log of compound concentration used a 4-parameter concentration response curve fitting algorithm to calculate IC50 values. Compound concentrations tested were 10,000, 3,333, 1,111, 370.4, 123.4, 41.2, 13.7, 4.6, 1.5 and 0.5 nM with 0.25% residual DMSO.

[2] = molecular target: human A2A receptors (Homo sapiens (Human), UniProt P29274); test: A2A antagonism in cAMP cell-based assay (LANCE cAMP, HEK293); details: HEK293 cells expressing human A2A receptor
Description: as §1, §2

[3] = molecular target: human A2b adenosine receptor (Homo sapiens (Human), UniProt P29275); test: A2b radioligand filtration binding assay; details: for IC50: membranes from HEK293 cells expressing human A2b receptor
Outline: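 Displacement of a tritiated A2b antagonist (working solution 14 nM) from human A2b receptor membranes of recombinant HEK293 cells, in Mg/Ca-free PBS pH 7.4, 60 min at room temperature after 15 to 30 min compound preincubation. Filtered, counted; normalized to total and 20 μM NECA non-specific binding; IC50 from logistic fit.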

[4] = molecular target: human A2a adenosine receptor (Homo sapiens (Human), UniProt P29274); test: A2a receptor affinity radioligand binding assay ([3H] SCH58261); details: for IC50: membranes from HEK293 or CHO cells expressing human A2a receptor
Outline: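 IC50 values come from 4-parameter logistic fits of filter-bound radioactivity, normalized to total (1% DMSO) and nonspecific (1 μM ZM241385) binding. Recombinant human A2a membranes (HEK293 or CHO) were exposed to compound for 15–30 min, then to [3H]SCH58261 (4 nM working dilution) for 60 min at room temperature in Tris pH 7.4/MgCl2/Tween20 buffer.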

Chain of human A2a adenosine receptor (P29274 whole entry): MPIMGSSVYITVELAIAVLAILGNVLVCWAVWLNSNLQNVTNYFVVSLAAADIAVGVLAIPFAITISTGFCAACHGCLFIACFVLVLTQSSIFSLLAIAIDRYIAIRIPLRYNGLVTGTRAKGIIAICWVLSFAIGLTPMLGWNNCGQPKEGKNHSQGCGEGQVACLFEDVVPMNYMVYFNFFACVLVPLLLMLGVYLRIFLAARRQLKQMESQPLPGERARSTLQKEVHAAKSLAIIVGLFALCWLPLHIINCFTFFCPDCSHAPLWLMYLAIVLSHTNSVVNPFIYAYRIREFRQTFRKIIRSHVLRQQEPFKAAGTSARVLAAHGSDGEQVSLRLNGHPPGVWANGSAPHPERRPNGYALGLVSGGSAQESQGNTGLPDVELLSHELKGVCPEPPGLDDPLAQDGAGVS
Chain of human A2A receptors (P29274 whole entry): as above
Chain of human A2b adenosine receptor (P29275 whole entry): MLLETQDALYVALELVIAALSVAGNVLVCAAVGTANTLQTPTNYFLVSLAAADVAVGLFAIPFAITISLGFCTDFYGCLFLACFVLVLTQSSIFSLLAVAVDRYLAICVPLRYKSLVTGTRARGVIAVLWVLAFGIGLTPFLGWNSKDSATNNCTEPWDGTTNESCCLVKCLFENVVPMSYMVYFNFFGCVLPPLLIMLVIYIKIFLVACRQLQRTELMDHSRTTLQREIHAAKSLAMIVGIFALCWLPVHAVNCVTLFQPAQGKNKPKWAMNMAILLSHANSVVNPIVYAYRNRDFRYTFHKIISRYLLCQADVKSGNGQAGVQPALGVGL
Chain of human A2B receptors (P29275 whole entry): as above

Row | Compound | IC50 [2] | IC50 [3] | IC50 [4] | other results
1 | COc1cc2nc(N)n3nc([C@@H]4CCCN(c5cnn(C(C)C(C)O)c5)C4)nc3c2cc1F (single isomer, unassigned) [Example 188, (2R,3R or 2S,3S)-3-(4-((R)-3-(5-amino-9-fluoro-8-methoxy-[1,2,4]triazolo[1,5-c]quinazolin-2-yl)piperidin-1-yl)-1H-pyrazol-1-yl)butan-2-ol] | 1.5 nM |  |  | IC50 [1]: 53.1 nM
2 | CC1CC(c2nc3c4cc(F)cc(F)c4nc(N)n3n2)CN(c2cnn(CC(C)(C)O)c2)C1 (single isomer, unassigned) [Example 164, 1-(4-((3S,5R or 3R,5S)-3-(5-amino-7,9-difluoro-[1,2,4]triazolo[1,5-c]quinazolin-2-yl)-5-methylpiperidin-1-yl)-1H-pyrazol-1-yl)-2-methylpropan-2-ol] | 1.9 nM |  |  | IC50 [1]: 47.7 nM
3 | COc1cc(F)cc2c1nc(N)n1nc(C3CC(C)CN(c4cn(C(C)C(C)O)nc4C)C3)nc21 (single isomer, unassigned) [Example 225, (2R,3R or 2S,3S)-3-(4-((3R,5S or 3S,5R)-3-(5-amino-9-fluoro-7-methoxy-[1,2,4]triazolo[1,5-c]quinazolin-2-yl)-5-methylpiperidin-1-yl)-3-methyl-1H-pyrazol-1-yl)butan-2-ol] | 0.4 nM |  |  | 
4 | COc1cc(F)cc2c1nc(N)n1nc(C3CC(C)CN(c4cn(C(C)C(C)O)nc4C)C3)nc21 (single isomer, unassigned) [Example 226, (2R,3R or 2S,3S)-3-(4-((3S,5R or 3R,5S)-3-(5-amino-9-fluoro-7-methoxy-[1,2,4]triazolo[1,5-c]quinazolin-2-yl)-5-methylpiperidin-1-yl)-3-methyl-1H-pyrazol-1-yl)butan-2-ol] | 17.6 nM |  |  | 
5 | COc1cc(F)cc2c1nc(N)n1nc(C3CC(C)CN(c4cn(C(C)C(C)O)nc4C)C3)nc21 (single isomer, unassigned) [Example 227, (2S,3S or 2R,3R)-3-(4-((3S,5R or 3R,5S)-3-(5-amino-9-fluoro-7-methoxy-[1,2,4]triazolo[1,5-c]quinazolin-2-yl)-5-methylpiperidin-1-yl)-3-methyl-1H-pyrazol-1-yl)butan-2-ol] | 40.2 nM |  |  | 
6 | COc1cc(F)cc2c1nc(N)n1nc(C3CC(C)CN(c4cn(C(C)C(C)O)nc4C)C3)nc21 (single isomer, unassigned) [Example 224, (2S,3S or 2R,3R)-3-(4-((3R,5S or 3S,5R)-3-(5-amino-9-fluoro-7-methoxy-[1,2,4]triazolo[1,5-c]quinazolin-2-yl)-5-methylpiperidin-1-yl)-3-methyl-1H-pyrazol-1-yl)butan-2-ol] | 0.4 nM |  |  | 
7 | COc1cc(F)cc2c1nc(N)n1nc([C@@H]3CCCN(c4cnn(CC(C)(C)O)c4)C3)nc21 [Example 28, (R)-1-(4-(3-(5-amino-9-fluoro-7-methoxy-[1,2,4]triazolo [1,5-c]quinazolin-2-yl)piperidin-1-yl)-1H-pyrazol-1-yl)-2-methylpropan-2-ol] |  | 76.3 nM | 2.8 nM | 
8 | COc1cc2nc(N)n3nc(C4CN(c5cn(CC(C)(C)O)nc5C)CCS4(=O)=O)nc3c2cc1F (single isomer, unassigned) [Example 142, (R or S)-2-(5-amino-9-fluoro-8-methoxy-[1,2,4]triazolo[1,5-c]quinazolin-2-yl)-4-(1-(2-hydroxy-2-methylpropyl)-3-methyl-1H-pyrazol-4-yl)thiomorpholine 1,1-dioxide] |  | 7940 nM |  | A2A binding % Inh. @ 1000 nM [4]: 32% Inh. @
9 | COc1cc2nc(N)n3nc([C@@H]4CCCN(c5cnc(OC(F)F)c(C)c5)C4)nc3c2cc1F [Example 24, (R)-2-(1-(6-(difluoromethoxy)-5-methylpyridin-3-yl)piperidin-3-yl)-9-fluoro-8-methoxy-[1,2,4]triazolo[1,5-c]quinazolin-5-amine] |  | 480 nM | 13.8 nM | 
10 | COc1cc(F)cc2c1nc(N)n1nc([C@@H]3CCCN(c4cnn(CC(C)(C)O)c4C)C3)nc21 [Example 29, (R)-1-(4-(3-(5-amino-9-fluoro-7-methoxy-[1,2,4]triazolo [1,5-c]quinazolin-2-yl)piperidin-1-yl)-5-methyl-1H-pyrazol-1-yl)-2-methylpropan-2-ol] |  | 301 nM | 1.5 nM | 
11 | COc1cc2nc(N)n3nc([C@@H]4CCCN(c5nc(C)n(CC(C)(C)O)n5)C4)nc3c2cc1F [Example 27, (R)-1-(3-(3-(5-amino-9-fluoro-8-methoxy-[1,2,4]triazolo[1,5-c]quinazolin-2-yl)piperidin-1-yl)-5-methyl-1H-1,2,4-triazol-1-yl)-2-methylpropan-2-ol] |  | 861 nM | 1.8 nM | 
12 | COc1cc2nc(N)n3nc(C4CN(c5cnn(CC(C)(C)O)c5)CCC4C)nc3c2cc1F (single isomer, unassigned) [Example 67, 1-(4-((3R or 3S,4R or 4S)-3-(5-amino-9-fluoro-8-methoxy-[1,2,4]methylpiperidin-1-yl)-1H-pyrazol-1-yl)-2-methylpropan-2-ol] |  |  |  | A2B binding % Inh. @ 10000 nM ([3]; @ 10000 nM): 31% Inh.; A2A binding % Inh. @ 1000 nM [4]: 44% Inh.
13 | COc1cc2nc(N)n3nc(C4CCC(C)N(c5cn(C6CCOCC6)nc5C)C4)nc3c2cc1F (single isomer, unassigned) [Example 46, 9-fluoro-8-methoxy-24(3R,6S or 3S,6R)-6-methyl-1-(3-methyl-1-(tetrahydro-2H-pyran-4-yl)-1H-pyrazol-4-yl)piperidin-3-yl) [1,2,4]triazolo[1,5-c]quinazolin-5-amine] |  | 86.4 nM | 0.6 nM | 
14 | COc1cc(F)cc2c1nc(N)n1nc(C3CCC(C)N(c4cnn(C(C)(C)CO)c4)C3)nc21 (single isomer, unassigned) [Example 125, 2-(4-((2S or 2R,5R or 5S)-5-(5-amino-9-fluoro-7-methoxy-[1,2,4]triazolo[1,5-c]quinazolin-2-yl)-2-methylpiperidin-1-yl)-1H-pyrazol-1-yl)-2-methylpropan-1-ol] |  | 2500 nM | 86.4 nM | 
15 | COc1cc2nc(N)n3nc([C@@H]4CCCN(c5cnn([C@H]6C[C@@](C)(O)C6)c5)C4)nc3c2cc1F [Example 14, (1s,3s)-3-(4-((R)-3-(5-amino-9-fluoro-8-methoxy-[1,2,4]triazolo[1,5-c]quinazolin-2-yl)piperidin-l-yl)-1H-pyrazol-1-yl)-methylcyclobutan-1-ol] |  | 225 nM | 3 nM | 
16 | COc1cc2nc(N)n3nc([C@@H]4CCCN(c5ncn(C(C)C(C)(C)O)n5)C4)nc3c2cc1F (single isomer, unassigned) [Example 64, (R or S)-3-(3-((R)-3-(5-amino-9-fluoro-8-methoxy-[1,2,4]triazolo[1,5-c]quinazolin-2-yl)piperidin-1-yl)-1H-1,2,4-triazolo-1-yl)-2-methylbutan-2-ol] |  | 555 nM | 1 nM | 
17 | COc1cc2nc(N)n3nc([C@@H]4CCCN(c5cnn(C6CCOCC6)c5C)C4)nc3c2cc1F [Example 16, (R)-9-fluoro-8-methoxy-2-(1-(5-methyl-1-(tetrahydro-2H-pyran-4-yl)-1H-pyrazol-4-yl)piperidin-3-yl)-[1,2,4]triazolo[1,5-c]quinazoliu-5-amine] |  | 426 nM | 0.8 nM | 
